≈ marks a conversion by molar mass, not a printed value.
Tests used:
[1] = Partition coefficient, log D of the compound at pH 7.4 by HPLC analysis; conditions: octanol/water
Plasmodium falciparum [2] = assay: Resistance index, ratio of EC50 for chloroquine, mefloquine, pyrimethamine and atovaquone-resistant Plasmodium falciparum TM90-C2B to EC50 for chloroquine and pyrimethamine-resistant Plasmodium falciparum W2; type: functional
[3] = Cytotoxicity index, ratio of EC50 for mouse J774 cells to EC50 for chloroquine, mefloquine, pyrimethamine and atovaquone-resistant Plasmodium falciparum TM90-C2B; type: cell-based; conditions: read-out: Ratio EC50
Plasmodium falciparum [4] = assay: Antimalarial activity against chloroquine, mefloquine, pyrimethamine and atovaquone-resistant Plasmodium falciparum TM90-C2B infected in human A positive erythrocytes after 72 hrs by SYBR Green I assay; type: functional, organism-based
[5] = Aqueous solubility of compound at pH 7.4 by HPLC analysis; conditions: buffer
[6] = Permeability of the compound by PAMPA method at pH 7.4; type: ADME; conditions: read-out: permeability
J774 = assay: Cytotoxicity against mouse J774 cells after 72 hrs by Cell titer 96 aqueous one solution cell proliferation assay; type: cell-based; conditions: J774, 72 h
Plasmodium falciparum [7] = assay: Antimalarial activity against chloroquine and pyrimethamine-resistant Plasmodium falciparum W2 infected in human A positive erythrocytes after 72 hrs by SYBR Green I assay; type: functional, organism-based; conditions: W2, 72 h

| Structure (SMILES) | logD [1] | Ratio EC50 (Plasmodium falciparum [2]) | selectivity ratio [3] | EC50 (Plasmodium falciparum [4]) | solubility [5] | Papp [6] | EC50 (J774) | EC50 (Plasmodium falciparum [7]) |
| --- | --- | --- | --- | --- | --- | --- | --- | --- |
| O=c1c2c([nH]c3cc(-c4c(F)cccc4F)ccc13)CCCC2 | 3 | 0.35 | ≥ 100 | 25.3 nM | 0.3 µM (≈ 0.0934 µg/mL) | 339 ×10⁻⁶ cm/s | > 100 nM | 72.3 nM |
| Cc1ccc2[nH]c3c(c(=O)c2c1)CCC(C)(C)C3 | 2.4 | 0.54 | ≥ 100 | 319 nM | 4 µM (≈ 0.965 µg/mL) | 78 ×10⁻⁶ cm/s | > 2000 nM | 587 nM |
| O=c1c2c([nH]c3ccc(-c4cccc(Oc5ccc(F)cc5)c4)cc13)CCSC2 | 2.8 | 3.5 | ≥ 100 | 143 nM | 0.3 µM (≈ 0.121 µg/mL) | 2 ×10⁻⁶ cm/s | > 100 nM | 40.9 nM |
| COc1cccc2[nH]c3c(c(=O)c12)CCC(C)(C)C3 | 1.7 | <0.42 | ≥ 100 | 4100 nM | 64 µM (≈ 16.5 µg/mL) | 43 ×10⁻⁶ cm/s | > 20000 nM | > 9720 nM |
| COc1ccc2[nH]c3c(c(=O)c2c1)CCCC3 | 1.5 | 1.03 | ≥ 100 | 2530 nM | 78 µM (≈ 17.9 µg/mL) | 16 ×10⁻⁶ cm/s | > 40000 nM | 2440 nM |
| CC(C)c1ccc2[nH]c3c(c(=O)c2c1)CCCC3 | 2.2 | 0.83 | ≥ 100 | 732 nM | 30 µM (≈ 7.24 µg/mL) | 100 ×10⁻⁶ cm/s | > 40000 nM | 879 nM |
| CC1(C)CCc2c([nH]c3ccccc3c2=O)C1 | 1.9 | 0.18 | ≥ 100 | 335 nM | 64 µM (≈ 14.5 µg/mL) | 43 ×10⁻⁶ cm/s | > 40000 nM | 1870 nM |
| O=c1c2c([nH]c3ccc(-c4ccncc4)cc13)CCSC2 | 0.8 | 0.8 | ≥ 100 | 4990 nM | 45 µM (≈ 13.2 µg/mL) | 15 ×10⁻⁶ cm/s | > 20000 nM | 6210 nM |
| O=c1c2c([nH]c3c(F)c(F)ccc13)CCCC2 | 1.9 | 0.36 | ≥ 100 | 378 nM | 93 µM (≈ 21.9 µg/mL) | 38 ×10⁻⁶ cm/s | > 40000 nM | 1050 nM |
| Cc1ccc2[nH]c3c(c(=O)c2c1)CCCC3 | 1.7 | 1.46 | ≥ 100 | 656 nM | 44 µM (≈ 9.38 µg/mL) | 19 ×10⁻⁶ cm/s | > 40000 nM | 449 nM |
| O=c1c2c([nH]c3c(F)cccc13)CCCC2 | 1.5 | 5.43 | ≥ 100 | 2910 nM | 109 µM (≈ 23.7 µg/mL) | 17 ×10⁻⁶ cm/s | > 40000 nM | 536 nM |
| CCOC(=O)c1ccc2[nH]c3c(c(=O)c2c1)CCCC3 | 2.1 | 0.38 | ≥ 100 | 58.3 nM | 8 µM (≈ 2.17 µg/mL) | 63 ×10⁻⁶ cm/s | > 5000 nM | 153 nM |
| CC1(C)CCc2[nH]c3cccc(Cl)c3c(=O)c2C1 | 2.4 | 1.61 | ≥ 100 | 599 nM | 23 µM (≈ 6.02 µg/mL) | 117 ×10⁻⁶ cm/s | > 40000 nM | 373 nM |
| CC1(C)CCc2c([nH]c3cc(Cl)ccc3c2=O)C1 | 2.9 | 0.6 | ≥ 100 | 645 nM | 1 µM (≈ 0.262 µg/mL) |  | > 1000 nM | 1080 nM |
| Cc1cccc2c(=O)c3c([nH]c12)CC(C)(C)CC3 | 2.3 | 0.74 | ≥ 100 | 1750 nM | 60 µM (≈ 14.5 µg/mL) | 88 ×10⁻⁶ cm/s | > 40000 nM | 2370 nM |
| O=c1c2c([nH]c3cccc(Cl)c13)CCCC2 | 1.8 | 1.22 | ≥ 100 | 447 nM | 99 µM (≈ 23.1 µg/mL) | 47 ×10⁻⁶ cm/s | > 5000 nM | 368 nM |
| O=c1c2c([nH]c3cc(C(F)(F)F)ccc13)CCC2 | 2.3 | 0.19 | ≥ 100 | 438 nM | 98 µM (≈ 24.8 µg/mL) | 60 ×10⁻⁶ cm/s | > 40000 nM | 2320 nM |
| CC1(C)CCc2[nH]c3c(Cl)cccc3c(=O)c2C1 | 2.9 | 1.01 | ≥ 100 | 4730 nM | 62 µM (≈ 16.2 µg/mL) | 427 ×10⁻⁶ cm/s | > 20000 nM | 4670 nM |
| COc1ccc(OC)c2c(=O)c3c([nH]c12)CCCC3 | 1.5 |  | ≥ 100 | > 9640 nM | 105 µM (≈ 27.2 µg/mL) | 9 ×10⁻⁶ cm/s | > 20000 nM | > 9640 nM |
| O=c1c2c([nH]c3cc(F)c(F)cc13)CCCC2 | 1.9 | 0.91 | ≥ 100 | 118 nM | 18 µM (≈ 4.23 µg/mL) | 28 ×10⁻⁶ cm/s | > 10000 nM | 129 nM |

| Structure (SMILES) | logD [1] | Ratio EC50 (Plasmodium falciparum [2]) | selectivity ratio [3] | EC50 (Plasmodium falciparum [4]) | solubility [5] | Papp [6] | EC50 (J774) | EC50 (Plasmodium falciparum [7]) |
| --- | --- | --- | --- | --- | --- | --- | --- | --- |
| COc1cc(OC)c2[nH]c3c(c(=O)c2c1)CCCC3 | 1.9 | <0.83 | ≥ 100 | 7980 nM | 152 µM (≈ 39.4 µg/mL) | 51 ×10⁻⁶ cm/s | > 20000 nM | > 9640 nM |
| COc1cc2[nH]c3c(c(=O)c2cc1Cl)CSCC3 | 1 | 4.94 | ≥ 100 | 130 nM | 13 µM (≈ 3.66 µg/mL) | 101 ×10⁻⁶ cm/s | > 10000 nM | 26.3 nM |
| Cc1cc(C)c2[nH]c3c(c(=O)c2c1)CCCC3 | 2.2 | 0.72 | ≥ 100 | 768 nM | 108 µM (≈ 24.5 µg/mL) | 58 ×10⁻⁶ cm/s | > 40000 nM | 1070 nM |
| O=c1c2c([nH]c3c(Cl)ccc(Cl)c13)CCCC2 | 2.6 |  | ≥ 100 | > 9320 nM | 108 µM (≈ 29 µg/mL) | 288 ×10⁻⁶ cm/s | > 20000 nM | > 9320 nM |
| Cc1cc(C)c2c(=O)c3c([nH]c2c1)CCCC3 | 2.4 | 1.54 | ≥ 100 | 4830 nM | 17 µM (≈ 3.86 µg/mL) | 218 ×10⁻⁶ cm/s |  | 3130 nM |
| CN1CCc2[nH]c3ccccc3c(=O)c2C1 | 1 |  | ≥ 100 | > 9990 nM | 33 µM (≈ 7.07 µg/mL) | 21 ×10⁻⁶ cm/s | > 20000 nM | > 9990 nM |
| Cc1cc2[nH]c3c(c(=O)c2cc1C)CCCC3 |  |  |  | 216 nM | 41 µM (≈ 9.32 µg/mL) | 46 ×10⁻⁶ cm/s | > 20000 nM | 262 nM |
| O=c1c2c([nH]c3c(C(F)(F)F)cccc13)CCCC2 | 2.6 |  | ≥ 100 | > 9350 nM | 116 µM (≈ 31 µg/mL) | 246 ×10⁻⁶ cm/s | > 20000 nM | > 9350 nM |
| CC(C)Oc1cc2[nH]c3c(c(=O)c2cc1Cl)CCCC3 | 2.9 | 4.88 | ≥ 100 | 104 nM | 0.3 µM (≈ 0.0875 µg/mL) |  | > 100 nM | 21.3 nM |
| O=C1C(O)=C([C@H]2CC[C@H](c3ccc(Cl)cc3)CC2)C(=O)c2ccccc21 [ATOVAQUONE] |  |  |  | > 170 nM |  |  |  | 0.53 nM |
| CC(C)(C)c1cccc2c(=O)c3c([nH]c12)CCCC3 | 3.3 |  | ≥ 100 | > 9790 nM | 90 µM (≈ 23 µg/mL) | 553 ×10⁻⁶ cm/s | > 10000 nM | > 9790 nM |
| Cc1cccc2[nH]c3c(c(=O)c12)CCC(C)(C)C3 | 2.8 |  | ≥ 100 | > 9990 nM | 9 µM (≈ 2.17 µg/mL) | 240 ×10⁻⁶ cm/s | > 5000 nM | > 9990 nM |
| O=C1CC(c2ccc(Cl)cc2Cl)Cc2nc3ccc(Cl)cc3c(O)c21 (centres undefined) | 3.1 | 3.19 | ≥ 100 | 27.8 nM | 1 µM (≈ 0.393 µg/mL) | 20 ×10⁻⁶ cm/s |  | 8.71 nM |
| O=c1c2c([nH]c3ccc(Oc4ccc(F)cc4)cc13)CCCC2 | 2.8 | 0.28 | ≥ 100 | 47 nM | 8 µM (≈ 2.47 µg/mL) |  | > 5000 nM | 169 nM |
| O=c1c2c([nH]c3cc(Br)ccc13)CCSC2 | 0.9 |  | ≥ 100 | > 8440 nM | 17 µM (≈ 5.04 µg/mL) | 6.3 ×10⁻⁶ cm/s | > 10000 nM | 667 nM |
| COc1ccc2[nH]c3c(c(=O)c2c1)CCC(C)(C)C3 | 2.3 |  | ≥ 100 | > 9720 nM | 9.2 µM (≈ 2.37 µg/mL) | 128 ×10⁻⁶ cm/s | > 5000 nM | > 9720 nM |
| O=c1c2c([nH]c3c(Cl)cc(Cl)cc13)CCCC2 | 3 |  | ≥ 100 | > 9320 nM | 1 µM (≈ 0.268 µg/mL) | 252 ×10⁻⁶ cm/s | > 1000 nM | > 9320 nM |
| CN(C)CCC/N=C1\CC(c2ccc(Cl)cc2Cl)Cc2nc3ccc(Cl)cc3c(O)c21 (racemic) |  | 12 | ≥ 100 | 300 nM |  |  |  | 25 nM |
| C[C@H]1[C@@H](O)O[C@@H]2O[C@@]3(C)CC[C@H]4[C@H](C)CC[C@@H]1[C@@]24OO3 [ARTENIMOL] |  |  |  | 0.9 nM |  |  |  | 1.8 nM |

— ChEMBL document CHEMBL1799910, “Optimization of 1,2,3,4-tetrahydroacridin-9(10H)-ones as antimalarials utilizing structure-activity and structure-property relationships” (J Med Chem, 2011)
